Key:
[1] = target: T1, Human ACC2 (Nd, N terminal deleted) (Homo sapiens, UniProt O00763); assay: Measurement of ACC2 inhibitory activity (recombinant ACC2 (Nd), malachite green absorbance); assay type: biochemical; conditions: recombinant human ACC2 (Nd) 6.4 μg/ml; 30° C.; 200 μM ATP, 200 μM Acetyl-CoA; absorbance 620 nm
T1 construct: His tag (from the pFAST-BacHTa vector); own knowledge: N-terminal 6xHis with TEV site; made in house; host or cells: SF-9 insect cells, recombinant baculovirus BAC-ACC2 (Nd)
Procedure: The ACC2 inhibitory action of the compound of the present invention was evaluated by the following method.
(§1) Human ACC2 gene was cloned by PCR using a human skeletal muscle cDNA library (Clontech) as a template and Primer 1 and Primer 2 shown below. Primer 1 and Primer 2 were prepared by adding SalI, XbaI restriction enzyme recognition sequences based on the information of the base sequence (Genbank Accession U89344) of human ACC2 gene.
(§2) PCR was performed using Pyrobest DNA polymerase (TAKARA BIO INC.). The obtained PCR product was cloned to pT7 Blue vector (Novagen) and, after confirmation of the base sequence, digested with restriction enzymes SalI and XbaI. The obtained DNA fragment was inserted into pFAST-BacHTa (Invitrogen) digested with restriction enzymes SalI and XbaI to give expression plasmid ACC2/pFAST-BacHTa.
PCR was performed using the expression plasmid as a template and Primer 3 and Primer 4 shown below to prepare a plasmid to be used for expression of ACC2 free of mitochondrial targeting sequence.
as §2, with “Pyrobest-DNA” for “Pyrobest DNA”, “AflII.” for “XbaI.”, “AflII” for “XbaI”, “ACC2mito7/pFAST-BacHTa.” for “ACC2/pFAST-BacHTa.”
Using the expression plasmid and BAC-TO-BAC Baculovirus Expression System (Invitrogen), virus stock BAC-ACC2 (N terminal deleted (hereinafter Nd)) of recombinant Baculovirus was prepared.
SF-9 cells (Invitrogen) were inoculated to a medium (2 L) for insect cells (Sf-900IISFM medium (Invitrogen) containing 10% fetal bovine serum (Trace), 50 mg/L Gentamicin (Invitrogen), 0.1% Pluronic F-68 (Invitrogen)) at 0.5×10^6 cells/mL, and cultured with shaking in Wave Bioreactor (Wave) at 27° C., 20 rpm, rocking angle […], oxygen concentration 30%.
On day 4 of the culture, 3 L of the medium for insect cells was added, the rocking angle was set to 8°, and the cells were cultured. On day 5 of the culture, 100 mL of recombinant Baculovirus BAC-ACC2 (Nd) was added, 5 L of the medium for insect cells was further added, the rocking angle was set to 11°, and the cells were cultured for 3 days. The culture medium was centrifuged at 1000×g for 10 min to give virus-infected cells. The cells were washed with phosphate buffered saline (Invitrogen) and centrifuged under the same conditions. The obtained cells were cryopreserved at −80° C.
The cryopreserved cells were thawed in ice and suspended in 900 mL of 25 mM HEPES buffer (pH 7.5) containing 10% Glycerol, 0.13 M NaCl, 1 mM EDTA, 25 mM Sodium βGlycerophosphate and 1 mM Sodium Orthovanadate, and supplemented with Complete Protease Inhibitor (Nippon Boehringer Ingelheim Co., Ltd.). The obtained suspension was homogenized 3 times in a polytron homogenizer (Kinematica) at 20,000 rpm for 30 sec. The obtained cell disruption solution was clarified by centrifugation at 31000×g for 60 min, and filtered through a 0.45 μm filter. The filtrate was passed through a column packed with 60 mL of Ni-NTA Super Flow Gel (QUIAGEN) at a flow rate of about 5 mL/min. The column was washed with buffer A (50 mM HEPES (pH 7.5) containing 0.3 M NaCl), further washed with buffer A containing 20 mM Imidazole, and eluted with buffer A containing 100 mM Imidazole. The eluate was concentrated with Vivaspin 20 (Vivascience) with a molecular weight cut off of 30K. The obtained concentrate was dialyzed against 50 mM HEPES (pH 7.5) containing 10 mM MgCl2, 2[…] Dithiothreitol, 10 mM Tripotassium Citrate and 0.3 M NaCl. The inner dialysate was filtered through a 0.22 μm filter to give ACC2 (Nd). The obtained ACC2 (Nd) was cryopreserved at −80° C.
A test compound was dissolved in dimethyl sulfoxide (DMSO) and the mixture was diluted with an enzyme reaction buffer and the resulting solution (5 μl) was added to each well.

Human ACC1 = target: T2, Human ACC1 (Homo sapiens, UniProt Q13085); assay: Measurement of ACC1 inhibitory activity (recombinant enzyme, malachite green absorbance); assay type: biochemical; conditions: recombinant human ACC1 8 μg/ml; 30° C.; 200 μM ATP, 200 μM Acetyl-CoA; absorbance 620 nm
T2 construct: His tag (from the pFAST-BacHTc vector); own knowledge: N-terminal 6xHis with TEV site; made in house; host or cells: SF-9 insect cells, recombinant baculovirus BAC-ACC1
Procedure: The ACC1 inhibitory action of the compound of the present invention was evaluated by the following method.
as §1, with “ACC1” for “ACC2”, “liver” for “skeletal muscle”, “NotI” for “XbaI”, “sequence” for “sequences”, “U19822)” for “U89344)”
as §2, with “using a” for “using”, “INC.)” for “INC.).”, “NotI.” for “XbaI.”, “to pFAST-BacHTc” for “into pFAST-BacHTa”, “NotI” for “XbaI”, “ACC1/pFAST-BacHTc.” for “ACC2/pFAST-BacHTa.”
Using the expression plasmid and BAC-TO-BAC Baculovirus Expression System (Invitrogen), virus stock BAC-ACC1 of recombinant Baculovirus was prepared.
SF-9 cells (Invitrogen) were inoculated to a medium (1 L) for insect cells (Sf-900IISFM medium (Invitrogen) containing 10% fetal bovine serum (Trace), 50 mg/L Gentamicin (Invitrogen) and 0.1% Pluronic F-68 (Invitrogen)) at 1×10^6 cells/mL, and cultured with shaking at 27° C., 100 rpm in a 2 L Erlenmeyer flask.
After 24 hr of the culture, recombinant Baculovirus BAC-ACC1 (10 mL) was added, and the cells were further cultured for 3 days. The culture medium was centrifuged at 1000×g for 5 min to give virus-infected cells. The cells were washed with phosphate buffered saline (Invitrogen), and centrifuged under the same conditions, and the obtained cells were cryopreserved at −80° C.
The cryopreserved cells were thawed in ice and suspended in 100 mL of 25 mM HEPES buffer (pH 7.5) containing 10% Glycerol, 0.13 M NaCl, 1 mM EDTA, 25 mM Sodium β-Glycerophosphate and 1 mM Sodium Orthovanadate, and supplemented with Complete Protease Inhibitor (Nippon Boehringer Ingelheim Co., Ltd.). The obtained suspension was homogenized 3 times in a polytron homogenizer (Kinematica) at 20,000 rpm for 30 sec. The obtained cell disruption solution was clarified by centrifugation at 185700×g for 50 min, and filtered through a 0.45 μm filter. The filtrate was passed through a column packed with 12 mL of Ni-NTA Super Flow Gel (QUIAGEN) at a flow rate of about 5 mL/min. The column was washed with buffer A (50 mM HEPES (pH 7.5) containing 0.3 M NaCl), further washed with buffer A containing 20 mM Imidazole, and eluted with buffer A containing 100 mM Imidazole. The eluate was concentrated with Vivaspin 20 (Vivascience) with a molecular weight cut off of 30K. The obtained concentrate was dialyzed against Sephadex G-25 (Amersham Biosciences, 358 ml) equilibrated with 50 mM HEPES (pH 7.5) containing 10 mM MgCl2, 2 mM Dithiothreitol, 10 mM Tripotassium Citrate and 0.3 M NaCl. The inner dialysate was concentrated with Vivaspin 20 (Vivascience) with a molecular weight cut off of 30K, and the concentrate was filtered through a 0.22 μm filter to give ACC1. The obtained ACC1 was cryopreserved at −80° C.
ACC1 (0.93 mg/ml) obtained in the above-mentioned (2) was diluted with an enzyme reaction buffer (50 mM HEPES (pH 7.5), 10 mM MgCl2, 10 mM Tripotassium Citrate, 2 mM Dithiothreitol, 0.75 mg/ml Fatty acid free BSA) to concentration of 8 μg/ml, and the mixture was added to each well of 384 well assay plate (Nunc 265196) by 10 μl.
Thereafter, ACC1 inhibitory rate (%) was measured in the same manner as in the below-mentioned Experimental Example 2-(3), and IC50 value was calculated.
ACC2 (Nd) (1.1 mg/ml) obtained in the above-mentioned (2) was diluted with an enzyme reaction buffer (50 mM HEPES (pH 7.5), 10 mM MgCl2, 10 mM Tripotassium Citrate, 2 mM Dithiothreitol, 0.75 mg/ml Fatty acid free BSA) to a concentration of 6.4 μg/ml, and the mixture was added to each well of a 384 well assay plate (Nunc 265196) by 10 μl. […]

T1 sequence (O00763 117-2458 limits assumed, stated change not applied): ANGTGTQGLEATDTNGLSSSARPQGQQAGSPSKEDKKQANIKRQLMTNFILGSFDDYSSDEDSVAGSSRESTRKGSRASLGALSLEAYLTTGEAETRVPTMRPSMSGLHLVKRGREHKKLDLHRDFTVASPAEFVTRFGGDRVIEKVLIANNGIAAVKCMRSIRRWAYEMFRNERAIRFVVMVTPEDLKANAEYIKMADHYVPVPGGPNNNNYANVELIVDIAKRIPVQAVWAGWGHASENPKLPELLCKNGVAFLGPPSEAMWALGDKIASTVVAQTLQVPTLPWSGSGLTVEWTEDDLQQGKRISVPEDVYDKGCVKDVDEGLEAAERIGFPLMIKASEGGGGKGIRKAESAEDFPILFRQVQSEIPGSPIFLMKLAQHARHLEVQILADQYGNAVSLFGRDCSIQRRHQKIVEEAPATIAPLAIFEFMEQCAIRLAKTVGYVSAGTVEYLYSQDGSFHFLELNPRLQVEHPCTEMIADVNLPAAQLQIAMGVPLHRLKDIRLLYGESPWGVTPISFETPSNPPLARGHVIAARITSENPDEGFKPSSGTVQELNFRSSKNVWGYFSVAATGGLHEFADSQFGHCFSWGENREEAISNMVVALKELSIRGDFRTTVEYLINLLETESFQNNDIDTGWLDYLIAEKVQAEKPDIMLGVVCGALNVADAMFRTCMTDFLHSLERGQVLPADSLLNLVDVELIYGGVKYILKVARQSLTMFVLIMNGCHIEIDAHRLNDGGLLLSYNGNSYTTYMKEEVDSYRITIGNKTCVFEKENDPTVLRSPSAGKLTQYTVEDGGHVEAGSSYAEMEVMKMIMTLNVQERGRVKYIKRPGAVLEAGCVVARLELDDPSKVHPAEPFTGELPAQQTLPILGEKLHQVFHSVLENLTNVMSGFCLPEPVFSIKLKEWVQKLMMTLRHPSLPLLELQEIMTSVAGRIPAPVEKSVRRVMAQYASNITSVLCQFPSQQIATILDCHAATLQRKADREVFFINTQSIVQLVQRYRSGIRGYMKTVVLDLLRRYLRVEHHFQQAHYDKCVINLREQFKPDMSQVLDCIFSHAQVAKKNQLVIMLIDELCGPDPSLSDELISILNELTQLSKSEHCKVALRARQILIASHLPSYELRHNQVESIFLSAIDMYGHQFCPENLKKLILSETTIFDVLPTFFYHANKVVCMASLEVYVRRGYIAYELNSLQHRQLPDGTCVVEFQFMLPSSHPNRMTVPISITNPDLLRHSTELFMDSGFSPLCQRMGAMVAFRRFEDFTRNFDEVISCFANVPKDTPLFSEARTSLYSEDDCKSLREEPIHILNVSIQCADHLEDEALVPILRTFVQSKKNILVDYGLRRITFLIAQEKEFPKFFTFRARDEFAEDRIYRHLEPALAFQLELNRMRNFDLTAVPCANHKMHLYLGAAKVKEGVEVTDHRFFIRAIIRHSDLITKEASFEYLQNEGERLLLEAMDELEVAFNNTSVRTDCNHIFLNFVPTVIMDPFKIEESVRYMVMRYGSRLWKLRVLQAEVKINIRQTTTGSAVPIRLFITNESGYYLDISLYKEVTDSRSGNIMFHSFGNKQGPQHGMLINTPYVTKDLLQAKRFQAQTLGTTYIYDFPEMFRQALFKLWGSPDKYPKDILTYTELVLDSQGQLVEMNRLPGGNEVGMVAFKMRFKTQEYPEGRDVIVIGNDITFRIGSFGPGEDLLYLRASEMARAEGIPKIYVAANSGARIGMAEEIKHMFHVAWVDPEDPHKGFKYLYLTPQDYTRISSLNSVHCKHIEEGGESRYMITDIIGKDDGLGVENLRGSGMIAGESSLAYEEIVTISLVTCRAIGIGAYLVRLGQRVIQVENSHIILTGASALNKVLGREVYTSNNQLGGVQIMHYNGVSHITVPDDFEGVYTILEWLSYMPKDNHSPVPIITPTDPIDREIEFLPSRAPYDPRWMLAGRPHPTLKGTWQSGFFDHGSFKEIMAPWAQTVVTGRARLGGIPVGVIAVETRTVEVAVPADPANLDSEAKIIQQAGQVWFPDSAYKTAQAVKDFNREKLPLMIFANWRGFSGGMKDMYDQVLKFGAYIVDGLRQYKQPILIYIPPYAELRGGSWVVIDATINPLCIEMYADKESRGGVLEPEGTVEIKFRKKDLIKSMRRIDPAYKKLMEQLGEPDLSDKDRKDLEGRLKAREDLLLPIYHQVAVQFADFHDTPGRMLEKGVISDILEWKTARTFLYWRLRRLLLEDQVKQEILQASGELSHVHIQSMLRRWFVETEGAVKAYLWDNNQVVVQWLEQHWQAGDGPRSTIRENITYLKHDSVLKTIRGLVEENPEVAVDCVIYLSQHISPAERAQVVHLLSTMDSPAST

SMILES | melting point [°C] | IC50 [1] [nM] | IC50 (Human ACC1) [nM]
CNC(=O)Nc1sc2nc(C)ccc2c1C(=O)N1CCC(N2CCCC3(CCN(C(C)C)C3=O)C2)CC1 (centres unmarked) [Example 64, N-(3-{[4-(2-isopropyl-1-oxo-2,7-diazaspiro[4.5]dec-7-yl)piperidin-1-yl]carbonyl}-6-methylthieno[2,3-b]pyridin-2-yl)-N′-methylurea] | 195 to 198 |  | 
CNC(=O)Nc1sc2nc(C)ccc2c1C(=O)N1CCC(N2CCCC3(C2)CC(C)(C)OC3=O)CC1 (centres unmarked) [Example 78, N-(3-{[4-(3,3-dimethyl-1-oxo-2-oxa-7-azaspiro[4.5]dec-7-yl)piperidin-1-yl]carbonyl}-6-methylthieno[2,3-b]pyridin-2-yl)-N′-methylurea] |  | 1 to 10 | 10 to 100
CCNC(=O)Nc1sc2nc(C)ccc2c1C(=O)N1CCC(N2CCCC3(C2)CC(C)(C)OC3=O)CC1 (centres unmarked) [Example 79, N-(3-{[4-(3,3-dimethyl-1-oxo-2-oxa-7-azaspiro[4.5]dec-7-yl)piperidin-1-yl]carbonyl}-6-methylthieno[2,3-b]pyridin-2-yl)-N′-ethylurea] |  | 1 to 10 | 10 to 100
